In ChEMBL document CHEMBL3045819, “Potent limonoid insect antifeedant from Melia azedarach” (2002):

Assays:
Assay type in all cases: functional
Epilachna [1] = experiment: Antifeedant activity against larvae of Epilachna paenulata in Cucurbita maxima leaves at 8 ug/cm2 after 24 hr by leaf disc choice test
Spodoptera eridania [2] = experiment: Antifeedant activity against larvae of Spodoptera eridania in Cucurbita maxima leaves at 14 ug/cm2 after 24 hr by leaf disk choice test
Spodoptera eridania [3] = experiment: Antifeedant activity against larvae of Spodoptera eridania in Cucurbita maxima leaves at 10 ug/cm2 after 24 hr by leaf disk choice test
Spodoptera eridania [4] = experiment: Antifeedant activity against larvae of Spodoptera eridania in Cucurbita maxima leaves at 1 ug/cm2 after 24 hr by leaf disk choice test
Epilachna [5] = experiment: Antifeedant activity against larvae of Epilachna paenulata in Cucurbita maxima leaves at 4 ug/cm2 after 24 hr by leaf disc choice test
Spodoptera eridania [6] = experiment: Antifeedant activity against larvae of Spodoptera eridania in Cucurbita maxima leaves at 0.25 ug/cm2 after 24 hr by leaf disk choice test
Epilachna [7] = experiment: Antifeedant activity against larvae of Epilachna paenulata in Cucurbita maxima leaves at 10 ug/cm2 after 24 hr by leaf disc choice test
Spodoptera eridania [8] = experiment: Antifeedant activity against larvae of Spodoptera eridania in Cucurbita maxima leaves at 4 ug/cm2 after 24 hr by leaf disk choice test
Spodoptera eridania [9] = experiment: Antifeedant activity against larvae of Spodoptera eridania in Cucurbita maxima leaves at 0.5 ug/cm2 after 24 hr by leaf disk choice test
Epilachna [10] = experiment: Antifeedant activity against larvae of Epilachna paenulata in Cucurbita maxima leaves at 0.5 ug/cm2 after 24 hr by leaf disc choice test
Epilachna [11] = experiment: Antifeedant activity against larvae of Epilachna paenulata in Cucurbita maxima leaves at 1 ug/cm2 after 24 hr by leaf disc choice test

**Q.** For `CC(=O)O[C@@H]1C[C@H](O)[C@@]23CO[C@@H](O)[C@]1(C)[C@@H]2C[C@@H](O)[C@]1(C)[C@@H]3C(=O)[C@H](OC(C)=O)[C@@]2(C)[C@H](c3ccoc3)C[C@H]3O[C@]321` [TOOSENDANIN], which AFI (Epilachna [1]) is on record?
**A.** 78.2%

**Q.** And the AFI (Spodoptera eridania [2])?
**A.** 87.8%

**Q.** What about the AFI (Spodoptera eridania [3]) of the same molecule?
**A.** 79.3%

**Q.** And the AFI (Spodoptera eridania [4])?
**A.** 65.1%

**Q.** What about the AFI (Epilachna [5]) of the same molecule?
**A.** 54.8%

**Q.** And the AFI (Spodoptera eridania [6])?
**A.** 45.8%

**Q.** What about the AFI (Epilachna [7]) of the same molecule?
**A.** 90.7%

**Q.** And the AFI (Spodoptera eridania [8])?
**A.** 71.8%

**Q.** And the AFI (Spodoptera eridania [9])?
**A.** 58.7%

**Q.** How did the AFI (Epilachna [10]) turn out when `CC(=O)O[C@@H]1C[C@H](O)[C@@]23CO[C@H](O)[C@]1(C)[C@@H]2C[C@@H](O)[C@]1(C)[C@@H]3C(=O)[C@H](O)[C@@]2(C)[C@H](c3ccoc3)C[C@H]3O[C@@]321` [12-HYDROXYAMOORASTATIN] was run?
**A.** 36.4%

**Q.** What about the AFI (Spodoptera eridania [4]) of the same molecule?
**A.** 91.2%

**Q.** What about the AFI (Epilachna [5]) of the same molecule?
**A.** 96.1%

**Q.** What about the AFI (Spodoptera eridania [6]) of the same molecule?
**A.** 35.5%

**Q.** What about the AFI (Epilachna [11]) of the same molecule?
**A.** 52.1%

**Q.** What about the AFI (Spodoptera eridania [8]) of the same molecule?
**A.** 95.5%

**Q.** And the AFI (Spodoptera eridania [9])?
**A.** 57.5%

**Q.** With `C/C=C(\C)C(=O)O[C@H]1C[C@@H](OC(C)=O)[C@@]2(C(=O)OC)CO[C@H]3[C@@H](O)[C@@](C)([C@]45O[C@@]4(C)[C@@H]4C[C@H]5O[C@@H]5OC=C[C@@]54O)[C@H]4[C@]1(CO[C@]4(O)C(=O)OC)[C@@H]32` [AZADIRACHTIN A] as the molecule, how does the AFI (Epilachna [10]) read?
**A.** 35.7%

**Q.** And the AFI (Spodoptera eridania [4])?
**A.** 94.2%

**Q.** What about the AFI (Epilachna [5]) of the same molecule?
**A.** 97.6%

**Q.** What about the AFI (Spodoptera eridania [6]) of the same molecule?
**A.** 57.3%

**Q.** What about the AFI (Epilachna [11]) of the same molecule?
**A.** 62.2%

**Q.** And the AFI (Spodoptera eridania [8])?
**A.** 94%

**Q.** And the AFI (Spodoptera eridania [9])?
**A.** 91.2%
